Measurements as given in US10994015B2, “EGFR proteolysis targeting chimeric molecules and associated methods of use” (Arvinas Operations, Inc., priority 2016, dated 2021).

Key:
[1] = biological target: EGFR L858R/T790M/C797S triple mutant (H520*) (Homo sapiens (Human), UniProt P00533, C797S/L858R/T790M); assay: EGFR protein degradation assay (Western blot); format: cell-based; settings: 72 hours, 300 nM to 10 nM
Procedure: (§1) EGFR Protein Degradation assay
Cells were incubated overnight at 37° C., 5% CO2 prior to compound addition. A 10 mM compound stock in DMSO was serially diluted in DMSO to provide the following stock concentrations: 1, 0.3, 0.1, 0.03 and 0.01 mM. An appropriate volume of each compound dilution, together with a DMSO vehicle control, was added to media to provide a 2× compound solution. […] At the end of the compound treatment, cells were washed once with ice-cold phosphate-buffered saline (PBS) and treated with lysis solution (1× lysis buffer, Cell Signaling Technologies (CST #9803) supplemented with Piarce™ protease inhibitors, #A32953, Thermo Fisher Scientific, TFS). Lysates were collected and clarified of cell debris by spinning at 10K rpm for 10 minutes. A specific volume of supernatant was retrieved for protein quantification (Pierce™ BCA kit, TFS #23225) and for Western analysis. Loading buffer supplemented with EDTA and reducing agent was added to each supernatant. A specific volume of supernatant (determined by protein assay: […] loaded per sample) was loaded into a NuPAGE™ 4-12% Bis-Tris gel (TFS). Samples were run at 165V in MOPS running buffer for 2 hours and then transferred to PVDF blotting membrane using a dry blotting system (iBlot2, TFS). Membranes were blocked in Tris-buffered saline supplemented with Tween, 0.1% (TBST) containing 5% non-fat dry milk, (AmericanBio). Following block, membranes were washed once with TBST. […] Membranes were washed 3× with TBST prior to addition of secondary antibody (1:10 000, anti-rabbit HRP-linked, CST #7074) in TBST with 3% BSA and then incubated at room temperature for one hour. Membranes were then washed 3× with TBS and signal developed by exposure to developer (SuperSignal West Femto, TFS) for 5 minutes. Membranes were then immediately imaged using a BioRad Chemidoc.

EGFR L858R/T790M = EGFR L858R/T790M (Homo sapiens (Human), UniProt P00533, L858R/T790M); assay: TR-FRET assay for ERBB kinases; format: biochemical; settings: geometric mean if measured more than once
EGFR L858R/T790M, sequence (P00533 25-1210 T790M/L858R): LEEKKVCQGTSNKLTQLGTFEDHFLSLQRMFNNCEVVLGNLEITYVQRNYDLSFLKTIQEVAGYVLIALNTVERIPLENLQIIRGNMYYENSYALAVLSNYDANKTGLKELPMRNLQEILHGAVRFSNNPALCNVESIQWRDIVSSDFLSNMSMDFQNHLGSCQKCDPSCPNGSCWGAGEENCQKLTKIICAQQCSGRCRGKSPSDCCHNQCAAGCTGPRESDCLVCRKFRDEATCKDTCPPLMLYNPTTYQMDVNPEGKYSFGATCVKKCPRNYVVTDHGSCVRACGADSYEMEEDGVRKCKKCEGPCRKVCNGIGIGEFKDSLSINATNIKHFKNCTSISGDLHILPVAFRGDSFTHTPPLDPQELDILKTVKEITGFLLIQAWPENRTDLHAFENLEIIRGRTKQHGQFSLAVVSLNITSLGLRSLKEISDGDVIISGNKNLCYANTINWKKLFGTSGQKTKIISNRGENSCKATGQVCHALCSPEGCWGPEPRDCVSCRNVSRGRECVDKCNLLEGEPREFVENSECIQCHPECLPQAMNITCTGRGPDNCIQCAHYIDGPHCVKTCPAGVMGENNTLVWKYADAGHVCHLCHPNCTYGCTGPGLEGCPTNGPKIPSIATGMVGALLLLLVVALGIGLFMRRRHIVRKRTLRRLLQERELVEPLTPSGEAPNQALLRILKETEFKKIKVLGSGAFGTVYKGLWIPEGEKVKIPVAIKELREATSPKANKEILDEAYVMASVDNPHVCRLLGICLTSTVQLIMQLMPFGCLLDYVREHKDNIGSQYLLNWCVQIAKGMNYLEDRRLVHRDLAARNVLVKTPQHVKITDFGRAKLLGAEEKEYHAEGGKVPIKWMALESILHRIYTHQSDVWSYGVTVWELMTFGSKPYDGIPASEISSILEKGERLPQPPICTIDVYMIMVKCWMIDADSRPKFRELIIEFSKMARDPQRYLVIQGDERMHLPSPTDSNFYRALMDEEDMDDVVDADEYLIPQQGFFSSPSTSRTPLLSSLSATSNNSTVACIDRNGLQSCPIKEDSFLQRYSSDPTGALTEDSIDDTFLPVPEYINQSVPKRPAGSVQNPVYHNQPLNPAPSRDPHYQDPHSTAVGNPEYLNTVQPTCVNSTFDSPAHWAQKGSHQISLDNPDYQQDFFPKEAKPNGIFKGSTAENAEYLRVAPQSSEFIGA
Procedure: (§2) TR-FRET Assay for ERBB Kinases
(§3) All compounds and PROTACs were serially diluted in three-fold increments using 100% DMSO, followed by an intermediate 10-fold dilution using Buffer A (50 mM HEPES, pH 7.5, 50 mM NaCl, 10 mM MgCl2, 1 mM DTT, and 0.1% Pluronic F-68). […] Next, 10 uL of protein kinase in Buffer A was added to each well of the assay plate and pre-incubated with compound for 10 minutes. Kinase reactions were then initiated by addition of 5 uL substrate mix containing 3 mM ATP and 30 uM fluorescein-labeled Poly-GluTyr (Thermo Fisher, #PV3610) in Buffer A and allowed to proceed for 10 minutes at room temperature. Reactions were quenched by addition of a 5 uL mixture containing 5 nM LanthaScreen® Tb-pY20 Antibody (Thermo Fisher, #PV3552) and 40 mM EDTA in Buffer A. Assay plates were then read using a Synergy2 (Biotek Instruments, Winooski, Vt.) via excitation thru a 340/20 nm bandpass filter and emission collected thru 490/10 nm (donor) and 520/25 nm (acceptor) bandpass filters.

EGFR WT = EGFR WT (Homo sapiens (Human), UniProt P00533); assay: TR-FRET assay for ERBB kinases; format: biochemical; settings: geometric mean if measured more than once
EGFR WT, sequence (P00533 25-1210): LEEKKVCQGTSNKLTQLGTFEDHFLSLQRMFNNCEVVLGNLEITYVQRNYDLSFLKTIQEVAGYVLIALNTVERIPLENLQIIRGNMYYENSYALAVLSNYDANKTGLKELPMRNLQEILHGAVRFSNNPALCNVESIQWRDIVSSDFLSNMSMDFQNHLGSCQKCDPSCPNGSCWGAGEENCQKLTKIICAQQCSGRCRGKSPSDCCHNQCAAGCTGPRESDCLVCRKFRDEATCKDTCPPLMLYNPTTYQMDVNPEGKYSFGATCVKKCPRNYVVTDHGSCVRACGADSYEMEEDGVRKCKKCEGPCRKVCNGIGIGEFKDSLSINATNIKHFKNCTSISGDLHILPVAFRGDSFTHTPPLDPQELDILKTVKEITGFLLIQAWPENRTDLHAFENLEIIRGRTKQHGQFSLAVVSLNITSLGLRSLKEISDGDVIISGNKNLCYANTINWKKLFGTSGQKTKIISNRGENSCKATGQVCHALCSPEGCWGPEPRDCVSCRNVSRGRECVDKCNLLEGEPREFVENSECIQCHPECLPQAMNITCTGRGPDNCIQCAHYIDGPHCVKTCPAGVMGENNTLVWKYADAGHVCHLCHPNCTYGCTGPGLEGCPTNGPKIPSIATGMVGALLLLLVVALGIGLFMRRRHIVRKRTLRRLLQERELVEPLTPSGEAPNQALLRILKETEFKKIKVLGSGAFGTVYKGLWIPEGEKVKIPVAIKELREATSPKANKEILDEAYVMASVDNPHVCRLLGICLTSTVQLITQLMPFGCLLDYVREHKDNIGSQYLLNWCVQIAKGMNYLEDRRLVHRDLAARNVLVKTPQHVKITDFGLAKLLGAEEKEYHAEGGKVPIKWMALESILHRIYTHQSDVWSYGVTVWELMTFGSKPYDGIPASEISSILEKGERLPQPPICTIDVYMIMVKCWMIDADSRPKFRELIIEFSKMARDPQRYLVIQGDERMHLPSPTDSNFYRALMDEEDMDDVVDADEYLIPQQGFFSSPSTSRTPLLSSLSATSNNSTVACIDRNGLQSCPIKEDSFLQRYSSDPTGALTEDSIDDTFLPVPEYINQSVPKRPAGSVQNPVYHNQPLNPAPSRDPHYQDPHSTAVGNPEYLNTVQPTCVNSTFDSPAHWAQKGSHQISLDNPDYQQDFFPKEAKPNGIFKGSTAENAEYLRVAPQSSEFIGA
Procedure: as §2, §3

EGFR L858R/T790M/C797S = EGFR L858R/T790M/C797S (Homo sapiens (Human), UniProt P00533, C797S/L858R/T790M); assay: TR-FRET assay for ERBB kinases; format: biochemical; settings: geometric mean if measured more than once
Procedure: as §2, §3

[2] = biological target: EGFR L858R/T790M double mutant (H1975) (Homo sapiens (Human), UniProt P00533, L858R/T790M); assay: EGFR protein degradation assay (Western blot); format: cell-based; settings: 72 hours, 300 nM to 10 nM
EGFR L858R/T790M double mutant (H1975), sequence (P00533 25-1210 T790M/L858R): as the sequence (P00533 25-1210 T790M/L858R) above
Procedure: as §1
Cells expressing the appropriate form of EGFR were seeded in 6-well plates (300,000 cells per well) and allowed to adhere to the plate overnight. […] To harvest cells, media was removed and cells were washed once with ice-cold phosphate-buffered saline (PBS) prior to the addition of 400 μl lysis buffer (Cell Signaling Technology) supplemented with a protease inhibitor cocktail (Thermo Scientific). Cells were scraped from the plate and the cell lysate transferred to an Eppendorf tube and then clarified by a single spin at 10 000 rpm for 10 minutes. The protein concentration of each lysate was determined (BCA kit, Thermo Scientific) prior to the addition of loading buffer (Invitrogen) and reducing agent (Invitrogen). 10 μg protein of each lysate was loaded on an SDS/PAGE gel and run at 165V for 2 hours. Following transfer to a PVDF membrane (iBlot2, Thermo Fisher Scientific), the membrane was blocked in Tris-buffered saline containing 0.1% Tween-20 (TBS-T) and supplemented with 5% powdered milk for 1 hour. Membranes were then probed with EGFR and tubulin (loaded control) primary antibodies in TBS-T containing 3% bovine serum albumin (BSA) overnight at 4° C. Membranes were washed thrice with TBS-T before incubation with secondary antibody in TBS-T containing 3% bovine serum albumin (BSA) and incubated for 1 hour at room temperature. Following 3 further washes with TBS, membrane proteins of interest were detected by enzyme-linked chemiluminescence (ECL) using a Chemidoc (Bio-Rad).

EGFR Exon20NPG = EGFR Exon20NPG (Homo sapiens (Human), UniProt P00533, INS770NPG); assay: TR-FRET assay for ERBB kinases; format: biochemical; settings: geometric mean if measured more than once
EGFR Exon20NPG, sequence (P00533 other isoform, or with tags, fused parts or gaps del 1-694/ins NPG behind 770 limits assumed): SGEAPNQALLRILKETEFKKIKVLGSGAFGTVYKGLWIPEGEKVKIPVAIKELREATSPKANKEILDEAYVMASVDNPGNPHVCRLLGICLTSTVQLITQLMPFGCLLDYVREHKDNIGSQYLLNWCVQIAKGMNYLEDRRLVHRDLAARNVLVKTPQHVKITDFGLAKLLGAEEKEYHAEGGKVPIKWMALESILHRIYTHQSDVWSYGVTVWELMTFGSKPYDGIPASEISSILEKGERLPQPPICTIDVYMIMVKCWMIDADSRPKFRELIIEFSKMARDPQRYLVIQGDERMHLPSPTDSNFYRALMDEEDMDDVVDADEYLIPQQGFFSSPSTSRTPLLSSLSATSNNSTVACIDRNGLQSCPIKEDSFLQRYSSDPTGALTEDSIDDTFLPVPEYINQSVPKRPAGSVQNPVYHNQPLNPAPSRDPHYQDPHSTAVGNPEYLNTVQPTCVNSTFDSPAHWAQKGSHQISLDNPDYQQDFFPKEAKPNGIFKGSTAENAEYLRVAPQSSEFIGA
Procedure: as §2
All compounds and PROTACs were serially diluted in three-fold increments using 100% DMSO, followed by an intermediate 10-fold dilution using Buffer A (50 mM HEPES, pH 7.5, 50 mM NaCl, 10 mM MgCl2, 1 mM DTT, and 0.1% Pluronic F-68). Two microliters of serially diluted compound or PROTAC were then transferred to black 384-well Proxiplates (PerkinElmer, #6008260) using an Integra Viaflo96. Next, 10 uL of protein kinase in Buffer A was added to each well of the assay plate and pre-incubated with compound for 10 minutes. Kinase reactions were then initiated by addition of 5 uL substrate mix containing 3 mM ATP and 30 uM fluorescein-labeled Poly-GluTyr (Thermo Fisher, #PV3610) in Buffer A and allowed to proceed for 10 minutes at room temperature. Reactions were quenched by addition of a 5 uL mixture containing 5 nM LanthaScreen® Tb-pY20 Antibody (Thermo Fisher, #PV3552) and 40 mM EDTA in Buffer A. Assay plates were then read using a Synergy2 (Biotek Instruments, Winooski, Vt.) via excitation thru a 340/20 nm bandpass filter and emission collected thru 490/10 nm (donor) and 520/25 nm (acceptor) bandpass filters.

SMILES | EGFR protein remaining, EGFR L858R/T790M/C797S triple mutant [1] | IC50 (EGFR L858R/T790M) [nM] | IC50 (EGFR WT) [nM] | IC50 (EGFR L858R/T790M/C797S) [nM] | EGFR protein remaining, EGFR L858R/T790M double mutant [2] | IC50 (EGFR Exon20NPG) [nM]
Cc1ncsc1-c1ccc([C@H](C)NC(=O)[C@@H]2C[C@@H](O)CN2C(=O)[C@@H](NC(=O)COCCOCCOCCc2ccc(OC3CCN(c4nccc(Nc5cc6c(cn5)nc(C)n6C(C)C)n4)CC3)cc2)C(C)(C)C)cc1 [Example 291, (2S,4R)-1-((S)-2-(Tert-butyl)-14-(4-((1-(4-((1-isopropyl-2-methyl-1H-imidazo[4,5-c]pyridin-6-yl)amino)pyrimidin-2-yl)piperidin-4-yl)oxy)phenyl)-4-oxo-6,9,12-trioxa-3-azatetradecanoyl)-4-hydroxy-N—((S)-1-(4-(4-methylthiazol-5-yl)phenyl)ethyl)pyrrolidine-2-carboxamide] | C (>80% EGFR protein remaining after 72 hours of incubation with the test compound at a concentration of 300 nM) | > 60000 | 14000 | > 60000 | – | –
COC1CCN(c2nccc(Nc3cc4c(cn3)nc(COCCN3CCN(c5ccc(O[C@H]6C[C@H](OCC(=O)N[C@H](C(=O)N7C[C@H](O)C[C@H]7C(=O)NCc7ccc(-c8scnc8C)cc7)C(C)(C)C)C6)cc5)CC3)n4C(C)C)n2)CC1 [Example 302, (2S,4R)-4-hydroxy-1-((S)-2-(2-((1r,3s)-3-(4-(4-(2-((1-isopropyl-6-((2-(4-methoxypiperidin-1-yl)pyrimidin-4-yl)amino)-1H-imidazo[4,5-c]pyridin-2-yl)methoxy)ethyl)piperazin-1-yl)phenoxy)cyclobutoxy)acetamido)-3,3-dimethylbutanoyl)-N-(4-(4-methylthiazol-5-yl)benzyl)pyrrolidine-2-carboxamide] | A (≤50% EGFR protein remaining after 72 hours of incubation with the test compound at a concentration between 300 nM and 10 nM) | 670 | > 30000 | 320 | – | –
O=C1CCC(N2C(=O)c3ccc(OCCN4CCN(CCCC#Cc5cccc6c5C(=O)N(C(C(=O)Nc5nccs5)c5cc(F)ccc5O)C6)CC4)cc3C2=O)C(=O)N1 (stereo not shown) [compound 94] | – | 6000 | 2100 | 1800 | C (>80% EGFR protein remaining after 72 hours of incubation with the test compound at a concentration of 300 nM) | 1500
O=C1CCC(N2C(=O)c3ccc(N4CCN(CCCC#Cc5cccc6c5C(=O)N(C(C(=O)Nc5nccs5)c5cc(F)ccc5O)C6)CC4)cc3C2=O)C(=O)N1 (stereo not shown) [compound 96] | – | 10000 | 1900 | 4600 | C (>80% EGFR protein remaining after 72 hours of incubation with the test compound at a concentration of 300 nM) | 2500
O=C1CCC(N2C(=O)c3ccc(OCCOCCOCCOCCOCCOCC#Cc4cccc5c4C(=O)N([C@@H](C(=O)Nc4nccs4)c4cc(F)ccc4O)C5)cc3C2=O)C(=O)N1 (stereo partly shown) [compound 263] | – | 11000 | 8600 | 790 | C (>80% EGFR protein remaining after 72 hours of incubation with the test compound at a concentration of 300 nM) | 12000
O=C1CCC(N2C(=O)c3cccc(NCCOCCOCC#Cc4cccc5c4C(=O)N([C@@H](C(=O)Nc4nccs4)c4cc(F)ccc4O)C5)c3C2=O)C(=O)N1 (stereo partly shown) [compound 264] | – | > 30000 | 4200 | 1100 | C (>80% EGFR protein remaining after 72 hours of incubation with the test compound at a concentration of 300 nM) | 24000
Cc1ncsc1-c1ccc(CNC(=O)[C@@H]2C[C@@H](O)CN2C(=O)C(C(C)C)N2Cc3ccccc3C2=O)c(OCCCCOc2ccc(-c3nccc(Nc4cc5c(cn4)nc(C)n5C(C)C)n3)cc2)c1 (stereo partly shown) [compound 277] | – | > 30000 | > 30000 | > 30000 | C (>80% EGFR protein remaining after 72 hours of incubation with the test compound at a concentration of 300 nM) | > 30000
O=C1CCC(N2C(=O)c3ccc(N4CCN(CCCOCCCCNc5cccc6c5C(=O)N(C(C(=O)Nc5nccs5)c5cc(F)ccc5O)C6)CC4)cc3C2=O)C(=O)N1 (stereo not shown) [compound 289] | C (>80% EGFR protein remaining after 72 hours of incubation with the test compound at a concentration of 300 nM) | 1700 | 1200 | 190 | – | –
O=C1CCC(N2C(=O)c3ccc(N4CCC(CN5CCC(OCC#Cc6cccc7c6C(=O)N(C(C(=O)Nc6nccs6)c6cc(F)ccc6O)C7)CC5)CC4)cc3C2=O)C(=O)N1 (stereo not shown) [compound 290] | B (≤80% and >50% EGFR protein remaining after 72 hours of incubation with the test compound at a concentration between 300 nM and 10 nM) | 2700 | 1100 | 140 | – | –
O=C1CCC(N2C(=O)c3ccc(N4CCN(CC5CCN(CCCc6cccc7c6C(=O)N(C(C(=O)Nc6nccs6)c6cc(F)ccc6O)C7)CC5)CC4)cc3C2=O)C(=O)N1 (stereo not shown) [compound 294] | C (>80% EGFR protein remaining after 72 hours of incubation with the test compound at a concentration of 300 nM) | 810 | 3500 | 170 | – | –
O=C1CCC(N2C(=O)c3cccc(NCCOCCOCCOCCOCCOCCOCC#Cc4cccc5c4C(=O)N(C(C(=O)Nc4nccs4)c4cc(F)ccc4O)C5)c3C2=O)C(=O)N1 (stereo not shown) [compound 295] | C (>80% EGFR protein remaining after 72 hours of incubation with the test compound at a concentration of 300 nM) | 3100 | 34000 | 710 | – | –
